What follows are compounds tested against T1, IRAK4 (Homo sapiens, UniProt Q9NWZ3) (assay: IRAK4 Degradation Assay, HiBiT Method). Settings: 293T cells expressing HiBiT-tagged IRAK4, 6 hours.
T1 construct: 293Tcells expressing HiBiT-tagged IRAK4 were then added into 384-well plates
T1 sequence (Q9NWZ3 1-460): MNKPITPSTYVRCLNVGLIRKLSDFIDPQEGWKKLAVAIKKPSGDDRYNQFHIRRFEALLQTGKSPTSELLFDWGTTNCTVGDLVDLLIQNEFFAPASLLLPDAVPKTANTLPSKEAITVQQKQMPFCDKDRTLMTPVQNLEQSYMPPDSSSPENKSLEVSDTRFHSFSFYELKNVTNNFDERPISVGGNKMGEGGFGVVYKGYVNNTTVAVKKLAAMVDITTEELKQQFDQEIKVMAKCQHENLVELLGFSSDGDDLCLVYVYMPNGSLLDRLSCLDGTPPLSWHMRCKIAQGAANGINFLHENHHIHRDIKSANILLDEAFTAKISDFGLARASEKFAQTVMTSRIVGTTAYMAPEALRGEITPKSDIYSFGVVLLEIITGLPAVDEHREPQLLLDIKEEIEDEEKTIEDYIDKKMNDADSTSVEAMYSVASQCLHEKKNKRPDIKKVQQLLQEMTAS
Assay type: cell-based
Outline: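 Luminescent read-out with Nano-Glo HiBiT lytic reagent after 6 h compound exposure at 37 °C. Cells were HiBiT-IRAK4 knock-in 293T (C-terminal tag), 10,000 per well. Compounds ran as 11-point half-log dilutions from […] highest dose, duplicate wells; DMSO served as negative control.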

Compound	DC50 [µM]
CC(C)Oc1cc2nc([C@H]3CC[C@H](CN4CCC(c5ccc(NC6CCC(=O)NC6=O)cc5)CC4)CC3)cn2cc1C(=O)Nc1cccc(C(F)(F)F)n1 (stereo partly shown) [Example 2, 2-[4-[[4-[4-[(2,6-dioxo-3-piperidyl)amino]phenyl]-1-piperidyl]methyl]cyclohexyl]-7-isopropoxy-N-[6-(trifluoromethyl)-2-pyridyl]imidazo[1,2-a]pyridine-6-carboxamide]	0.01 to 0.1
CC(C)Oc1cc2nn([C@H]3CC[C@H](CN4CCC(c5ccc6c(c5)n(C)c(=O)n6C5CCC(=O)NC5=O)CC4)CC3)cc2cc1C(=O)Nc1cccn([C@H]2C[C@H]2F)c1=O (stereo partly drawn) [Example 137, 2-((1r,4S)-4-((4-(1-(2,6-dioxopiperidin-3-yl)-3-methyl-2-oxo-2,3-dihydro-1H-benzo[d]imidazol-5-yl)piperidin-1-yl)methyl)cyclohexyl)-N-(1-((1S,2R)-2-fluorocyclopropyl)-2-oxo-1,2-dihydropyridin-3-yl)-6-isopropoxy-2H-indazole-5-carboxamide]	< 0.01
CC(C)Oc1cc2nc(C3CCN(C(=O)NC4CCN(c5ncc(C6CCC(=O)NC6=O)cc5F)CC4)CC3)cn2cc1C(=O)Nc1cnn2cccnc12 (stereo not shown) [Example 158, 2-(1-((1-(5-(2,6-dioxopiperidin-3-yl)-3-fluoropyridin-2-yl)piperidin-4-yl)carbamoyl)piperidin-4-yl)-7-isopropoxy-N-(pyrazolo[1,5-a]pyrimidin-3-yl)imidazo[1,2-a]pyridine-6-carboxamide]	< 0.01
CC(C)Oc1cc2nc([C@H]3CC[C@H](CN(C)C4CCN(Cc5ccc(NC6CCC(=O)NC6=O)cc5)CC4)CC3)cn2cc1C(=O)Nc1cccc(C(F)(F)F)n1 (stereo partly shown) [Example 8, 2-[4-[[[1-[[4-[(2,6-dioxo-3-piperidyl)amino]phenyl]methyl]-4-piperidyl]-methyl-amino]methyl]cyclohexyl]-7-isopropoxy-N-[6-(trifluoromethyl)-2-pyridyl]imidazo[1,2-a]pyridine-6-carboxamide]	> 1
CC(C)Oc1cc2nc(C3CCN(CC(=O)N4CCC(c5ccc(NC6CCC(=O)NC6=O)cc5)CC4)CC3)cn2cc1C(=O)Nc1cccc(C(F)(F)F)n1 (stereo not shown) [Example 103, 2-(1-(2-(4-(4-((2,6-dioxopiperidin-3-yl)amino)phenyl)piperidin-1-yl)-2-oxoethyl)piperidin-4-yl)-7-isopropoxy-N-(6-(trifluoromethyl)pyridin-2-yl)imidazo[1,2-a]pyridine-6-carboxamide]	0.01 to 0.1
CC(C)Oc1cc2nc([C@H]3CC[C@H](CN4CCC(c5ncc(NC6CCC(=O)NC6=O)cc5F)CC4)CC3)cn2cc1C(=O)Nc1cccn(C2CC2)c1=O (stereo partly shown) [Example 174, N-(1-cyclopropyl-2-oxo-1,2-dihydropyridin-3-yl)-2-((1r,4r)-4-((4-(5-((2,6-dioxopiperidin-3-yl)amino)-3-fluoropyridin-2-yl)piperidin-1-yl)methyl)cyclohexyl)-7-isopropoxyimidazo[1,2-a]pyridine-6-carboxamide]	0.01 to 0.1
CC(C)Oc1cc2nc(C3CCN(C(=O)CC4CCN(c5ccc6c([C@H]7CCC(=O)NC7=O)nn(C)c6c5)CC4)CC3)cn2cc1C(=O)Nc1cccc(C(F)F)n1 [Example 91, (R)—N-(6-(difluoromethyl)pyridin-2-yl)-2-(1-(2-(1-(3-(2,6-dioxopiperidin-3-yl)-1-methyl-1H-indazol-6-yl)piperidin-4-yl)acetyl)piperidin-4-yl)-7-isopropoxyimidazo[1,2-a]pyridine-6-carboxamide]	0.01 to 0.1
CC(C)Oc1cc2nn(C3CCN(C(=O)NC4CCN(c5ncc(C6CCC(=O)NC6=O)cc5F)CC4)CC3)cc2cc1C(=O)Nc1cccn([C@H]2C[C@H]2F)c1=O (stereo partly drawn) [Example 154, 2-(1-((1-(5-(2,6-dioxopiperidin-3-yl)-3-fluoropyridin-2-yl)piperidin-4-yl)carbamoyl)piperidin-4-yl)-N-(1-((1S,2R)-2-fluorocyclopropyl)-2-oxo-1,2-dihydropyridin-3-yl)-6-isopropoxy-2H-indazole-5-carboxamide]	< 0.01
CC(C)Oc1cc2nc(C3CCN(CC(=O)N4CCC(c5cc(F)c(C6CCC(=O)NC6=O)cc5F)CC4)CC3)cn2cc1C(=O)Nc1cccc(C(F)F)n1 (stereo not shown) [Example 97, N-[6-(difluoromethyl)-2-pyridyl]-2-[1-[2-[4-[4-(2,6-dioxo-3-piperidyl)-2,5-difluoro-phenyl]-1-piperidyl]-2-oxo-ethyl]-4-piperidyl]-7-isopropoxy-imidazo[1,2-a]pyridine-6-carboxamide]	0.01 to 0.1
CC(C)Oc1cc2nc([C@H]3CC[C@H](CN4CC5(CCCN5Cc5ccc(OC6CCC(=O)NC6=O)cc5)C4)CC3)cn2cc1C(=O)Nc1cccc(C(F)F)n1 (stereo partly shown) [Example 46, N-[6-(difluoromethyl)-2-pyridyl]-2-[4-[[5-[[4-[(2,6-dioxo-3-piperidyl)oxy]phenyl]methyl]-2,5-diazaspiro[3.4]octan-2-yl]methyl]cyclohexyl]-7-isopropoxy-imidazo[1,2-a]pyridine-6-carboxamide]	0.01 to 0.1
CC(C)Oc1cc2nc(C3CCN(CC(=O)N4CCC(c5ccc(NC6CCC(=O)NC6=O)cc5)CC4)CC3)cn2cc1C(=O)Nc1ccccc1 (stereo not shown) [Example 93, 2-[1-[2-[4-[4-[(2,6-dioxo-3-piperidyl)amino]phenyl]-1-piperidyl]-2-oxo-ethyl]-4-piperidyl]-7-isopropoxy-N-phenyl-imidazo[1,2-a]pyridine-6-carboxamide]	0.1 to 0.5
CC(C)Oc1cc2nc([C@H]3CC[C@H](CN(C)C4CCN(c5ccc(C6CCC(=O)NC6=O)cc5)CC4(F)F)CC3)cn2cc1C(=O)Nc1cccc(C(F)F)n1 (stereo partly shown) [Example 42, N-[6-(difluoromethyl)-2-pyridyl]-2-[4-[[[1-[4-(2,6-dioxo-3-piperidyl)phenyl]-3,3-difluoro-4-piperidyl]-methyl-amino]methyl]cyclohexyl]-7-isopropoxy-imidazo[1,2-a]pyridine-6-carboxamide]	0.1 to 0.5
CC(C)Oc1cc2nc([C@H]3CC[C@H](CN4CCC(c5ccc(OC6CCC(=O)NC6=O)cc5)CC4)CC3)cn2cc1C(=O)Nc1cccn(C2CC2)c1=O (stereo partly shown) [Example 166, N-(1-cyclopropyl-2-oxo-1,2-dihydropyridin-3-yl)-2-((1r,4r)-4-((4-(4-((2,6-dioxopiperidin-3-yl)oxy)phenyl)piperidin-1-yl)methyl)cyclohexyl)-7-isopropoxyimidazo[1,2-a]pyridine-6-carboxamide]	0.01 to 0.1
CC(C)Oc1cc2nn(C3CCN(C(=O)CC4(O)CCN(c5cc(F)c(C6CCC(=O)NC6=O)cc5F)CC4)CC3)cc2cc1C(=O)Nc1cccc(C(F)F)n1 (stereo not shown) [Example 67, N-(6-(difluoromethyl)pyridin-2-yl)-2-(1-(2-(1-(4-(2,6-dioxopiperidin-3-yl)-2,5-difluorophenyl)-4-hydroxypiperidin-4-yl)acetyl)piperidin-4-yl)-6-isopropoxy-2H-indazole-5-carboxamide]	< 0.01
CC(C)Oc1cc2nn(C3CCN(C(=O)CN4CCC(c5ccc(NC6CCC(=O)NC6=O)cc5F)CC4)CC3)cc2cc1C(=O)Nc1cccc(C(F)F)n1 (stereo not shown) [Example 64, N-(6-(difluoromethyl)pyridin-2-yl)-2-(1-(2-(4-(4-((2,6-dioxopiperidin-3-yl)amino)-2-fluorophenyl)piperidin-1-yl)acetyl)piperidin-4-yl)-6-isopropoxy-2H-indazole-5-carboxamide]	0.5 to 1
CC(C)Oc1cc2nc([C@H]3CC[C@H](CN4CCC(c5ccc(N6CCC(=O)NC6=O)cc5)CC4)CC3)cn2cc1C(=O)Nc1cccc(C(F)F)n1 [Example 39, N-[6-(difluoromethyl)-2-pyridyl]-2-[4-[[4-[4-(2,4-dioxohexahydropyrimidin-1-yl)phenyl]-1-piperidyl]methyl]cyclohexyl]-7-isopropoxy-imidazo[1,2-a]pyridine-6-carboxamide]	0.01 to 0.1
CC(C)Oc1nc2nc(C3CCC(CN4CCC(c5cc6c(cc5F)c(N5CCC(=O)NC5=O)nn6C)CC4)CC3)cn2cc1C(=O)Nc1cccn([C@H]2C[C@H]2F)c1=O (stereo partly drawn) [Example 197, 2-[4-[[4-[3-(2,4-dioxohexahydropyrimidin-1-yl)-5-fluoro-1-methyl-indazol-6-yl]-1-piperidyl]methyl]cyclohexyl]-N-[1-[(1S,2R)-2-fluorocyclopropyl]-2-oxo-3-pyridyl]-7-isopropoxy-imidazo[1,2-a]pyrimidine-6-carboxamide]	< 0.01
CC(C)Oc1cc2nc(C3CCC(CN4CCC(c5ccc(C6CCC(=O)NC6=O)cc5)CC4)CC3)cn2cc1C(=O)Nc1cccc(C(F)F)n1 (stereo not shown) [Example 15, N-[6-(difluoromethyl)-2-pyridyl]-2-[4-[[4-[4-(2,6-dioxo-3-piperidyl)phenyl]-1-piperidyl]methyl]cyclohexyl]-7-isopropoxy-imidazo[1,2-a]pyridine-6-carboxamide]	0.01 to 0.1
CC(C)Oc1cc2nn([C@H]3CC[C@H](CN4CCC(c5cc6c(cc5F)c(N5CCC(=O)NC5=O)nn6C)CC4)CC3)cc2cc1C(=O)Nc1cccn([C@H]2C[C@H]2F)c1=O [Example 130, 2-((1r,4S)-4-((4-(3-(2,4-dioxotetrahydropyrimidin-1(2H)-yl)-5-fluoro-1-methyl-1H-indazol-6-yl)piperidin-1-yl)methyl)cyclohexyl)-N-(1-((1S,2R)-2-fluorocyclopropyl)-2-oxo-1,2-dihydropyridin-3-yl)-6-isopropoxy-2H-indazole-5-carboxamide]	< 0.01

Reference: US20240343733A1, “COMPOUNDS FOR TARGETING DEGRADATION OF IRAK4 PROTEINS” (BIOGEN MA INC., priority 2021, published 2024)
